Active and inactive are the calls of the source. The rule behind the calls is not given here.
Tests used:
[1] = molecular target: NAD(P)H dehydrogenase [quinone] 1 (Homo sapiens) (UniProt P15559); experiment: Substrate activity at NQO1 in human A549 cells assessed as induction of ROS-induced p38 phosphorylation at T180/Y182 at 10 uM after 3 hrs by Western blot analysis relative to control; assay type: cell-based
[2] = molecular target: NAD(P)H dehydrogenase [quinone] 1 (Homo sapiens) (UniProt P15559); experiment: Substrate activity at NQO1 in human A549 cells assessed as induction of ROS-induced JNK phosphorylation at 10 uM after 3 hrs by Western blot analysis relative to control; assay type: cell-based
HepG2 = experiment: Cytotoxicity against human HepG2 cells assessed as cell growth inhibition preincubated for 24 hrs followed by compound washout measured after 72 hrs by MTT assay; assay type: functional, cell-based
[3] = molecular target: NAD(P)H dehydrogenase [quinone] 1 (Homo sapiens) (UniProt P15559); experiment: Substrate activity at NQO1 in human A549 cells assessed as induction of ROS-induced JNK phosphorylation at 1 uM after 3 hrs by Western blot analysis relative to control; assay type: cell-based
Homo sapiens = species: Homo sapiens; experiment: Selectivity ratio for substrate activity at recombinant human NQO1 to substrate activity at human CPR
A549/TR = experiment: Cytotoxicity against human A549/TR cells assessed as cell growth inhibition preincubated for 24 hrs followed by compound washout measured after 72 hrs by MTT assay; assay type: functional, cell-based
A549 [4] = experiment: Cytotoxicity against human A549 cells assessed as cell growth inhibition preincubated for 24 hrs followed by compound washout measured after 72 hrs by MTT assay; assay type: functional, cell-based
[5] = molecular target: NAD(P)H dehydrogenase [quinone] 1 (Homo sapiens) (UniProt P15559); experiment: Substrate activity at NQO1 in human A549 cells assessed as induction of ROS-induced Akt phosphorylation at S473 at 10 uM after 3 hrs by Western blot analysis relative to control; assay type: cell-based
A549 [6] = experiment: Induction of apoptosis in human A549 cells assessed as increase in cleaved PARP expression at 10 uM after 24 hrs in presence of NAC by Western blot analysis; assay type: functional, cell-based
A549 [7] = experiment: Effect on total p38 protein levels in human A549 cells at 10 uM after 3 hrs in presence of DIC by Western blot analysis relative to control; assay type: ADME, cell-based; settings: a549, 3 h
HEK293 = experiment: Cytotoxicity against HEK293 cells assessed as cell growth inhibition preincubated for 24 hrs followed by compound washout measured after 72 hrs by MTT assay; assay type: functional, cell-based; settings: Homo sapiens
MCF7 = experiment: Cytotoxicity against human MCF7 cells assessed as cell growth inhibition preincubated for 24 hrs followed by compound washout measured after 72 hrs by MTT assay; assay type: functional, cell-based
[8] = molecular target: NAD(P)H dehydrogenase [quinone] 1 (Homo sapiens) (UniProt P15559); experiment: Substrate activity at NQO1 in human A549 cells assessed as induction of ROS-induced Akt phosphorylation at […] at 10 uM after 3 hrs by Western blot analysis relative to control; assay type: cell-based
L02 = experiment: Induction of intracellular ROS levels in human L02 cells at 10 uM after 1 to 3 hrs by DCFH-DA-based flow cytometry; assay type: cell-based; settings: l02, 10 µM
[9] = molecular target: NAD(P)H dehydrogenase [quinone] 1 (Homo sapiens) (UniProt P15559); experiment: Substrate activity at NQO1 in human A549 cells assessed as induction of enzyme-catalyzed lipid peroxidation by measuring MDA equivalents per protein at 5 uM after 24 hrs by TBARS assay (reference value: 3.53 +/- 1.12 nmol/mg); assay type: cell-based
A549 [10] = experiment: Effect on total AKT protein levels in human A549 cells at 10 uM after 3 hrs in presence of NAC by Western blot analysis relative to control; assay type: ADME, cell-based; settings: a549, 3 h
[11] = molecular target: NAD(P)H dehydrogenase [quinone] 1 (Homo sapiens) (UniProt P15559); experiment: Substrate activity at NQO1 in human A549 cells assessed as induction of ROS-induced ERK phosphorylation at 5 uM after 3 hrs by Western blot analysis relative to control; assay type: cell-based
[12] = molecular target: NAD(P)H dehydrogenase [quinone] 1 (Homo sapiens) (UniProt P15559); experiment: Substrate activity at NQO1 in human A549 cells assessed as induction of ROS-induced Akt phosphorylation at […] after 3 hrs by Western blot analysis; assay type: cell-based
[13] = molecular target: NAD(P)H dehydrogenase [quinone] 1 (Homo sapiens) (UniProt P15559); experiment: Substrate activity at NQO1 in human A549 cells assessed as induction of ROS-induced ERK phosphorylation after 3 hrs by Western blot analysis; assay type: cell-based
[14] = molecular target: NAD(P)H dehydrogenase [quinone] 1 (Homo sapiens) (UniProt P15559); experiment: Substrate activity at NQO1 in human A549 cells assessed as induction of ROS-induced p38 phosphorylation at T180/Y182 at 1 uM after 3 hrs by Western blot analysis relative to control; assay type: cell-based
HCT-116 = experiment: Cytotoxicity against human HCT116 cells assessed as cell growth inhibition preincubated for 24 hrs followed by compound washout measured after 72 hrs by MTT assay; assay type: functional, cell-based
A549 [15] = experiment: Effect on total p38 protein levels in human A549 cells at 10 uM after 3 hrs by Western blot analysis relative to control; assay type: ADME, cell-based; settings: a549, 3 h
[16] = molecular target: NAD(P)H dehydrogenase [quinone] 1 (Homo sapiens) (UniProt P15559); experiment: Substrate activity at NQO1 in human A549 cells assessed as induction of ROS-induced p38 phosphorylation at T180/Y182 after 3 hrs by Western blot analysis; assay type: cell-based
[17] = molecular target: NAD(P)H dehydrogenase [quinone] 1 (Homo sapiens) (UniProt P15559); experiment: Substrate activity at NQO1 in human A549 cells assessed as induction of ROS-induced Akt phosphorylation at S473 at 10 uM after 3 hrs in presence of NAC by Western blot analysis relative to control; assay type: cell-based
[18] = molecular target: NAD(P)H dehydrogenase [quinone] 1 (Homo sapiens) (UniProt P15559); experiment: Substrate activity at NQO1 in human A549 cells assessed as induction of enzyme-catalyzed ROS production at 10 uM after 1 to 3 hrs in presence of DIC by DCFH-DA-based flow cytometry; assay type: cell-based
[19] = molecular target: NAD(P)H dehydrogenase [quinone] 1 (Homo sapiens) (UniProt P15559); experiment: Substrate activity at NQO1 in human A549 cells assessed as induction of ROS-induced JNK phosphorylation at 10 uM after 3 hrs in presence of NAC by Western blot analysis relative to control; assay type: cell-based
[20] = molecular target: NAD(P)H dehydrogenase [quinone] 1 (Homo sapiens) (UniProt P15559); experiment: Substrate activity at NQO1 in human A549 cells assessed as induction of ROS-induced ERK phosphorylation at 10 uM after 3 hrs by Western blot analysis relative to control; assay type: cell-based
NCI-H596 = experiment: Cytotoxicity against human NCI-H596 cells assessed as cell growth inhibition preincubated for 24 hrs followed by compound washout measured after 72 hrs by MTT assay; assay type: functional, cell-based
[21] = molecular target: NAD(P)H dehydrogenase [quinone] 1 (Homo sapiens) (UniProt P15559); experiment: Substrate activity at NQO1 in human A549 cells assessed as induction of ROS-induced Akt phosphorylation at S473 at 10 uM after 3 hrs in presence of DIC by Western blot analysis relative to control; assay type: cell-based
A549 [22] = experiment: Induction of apoptosis in human A549 cells assessed as increase in cleaved PARP expression after 24 hrs by Western blot analysis; assay type: functional, cell-based
A549 [23] = experiment: Reduction of intracellular NADPH levels in human A549 cells xenografted in athymic nude mouse at 15 to 30 mg/kg, iv administered every other day for 3 weeks by fluorescent NADP+/NADPH detection based assay; assay type: functional, organism-based
[24] = molecular target: NAD(P)H dehydrogenase [quinone] 1 (Homo sapiens) (UniProt P15559); experiment: Substrate activity at recombinant human NQO1 expressed in Escherichia coli assessed as reduction rate by measuring umol of NADPH utilized per umol of enzyme at 10 uM preincubated for 3 mins followed by NADPH addition measured at 2 secs interval for 5 mins by UV-Vis spectroscopy
[25] = molecular target: NAD(P)H dehydrogenase [quinone] 1 (Homo sapiens) (UniProt P15559); experiment: Substrate activity at NQO1 in human A549 cells assessed as induction of enzyme-catalyzed ROS production at 10 uM after 1 to 3 hrs in presence of NAC by DCFH-DA-based flow cytometry; assay type: cell-based
A549 [26] = experiment: Antitumor activity against human A549 cells xenografted in athymic nude mouse assessed as tumor growth inhibition at 30 mg/kg, iv administered every other day for 3 weeks measured every day during compound dosing relative to control; assay type: functional; settings: 504 h, read-out: TGI
[27] = molecular target: NAD(P)H dehydrogenase [quinone] 1 (Homo sapiens) (UniProt P15559); experiment: Substrate activity at NQO1 in human A549 cells assessed as induction of enzyme-catalyzed ROS production at 10 uM after 1 to 3 hrs by DCFH-DA-based flow cytometry; assay type: cell-based

Sequence of NAD(P)H dehydrogenase [quinone] 1 (Homo sapiens) (P15559 whole entry): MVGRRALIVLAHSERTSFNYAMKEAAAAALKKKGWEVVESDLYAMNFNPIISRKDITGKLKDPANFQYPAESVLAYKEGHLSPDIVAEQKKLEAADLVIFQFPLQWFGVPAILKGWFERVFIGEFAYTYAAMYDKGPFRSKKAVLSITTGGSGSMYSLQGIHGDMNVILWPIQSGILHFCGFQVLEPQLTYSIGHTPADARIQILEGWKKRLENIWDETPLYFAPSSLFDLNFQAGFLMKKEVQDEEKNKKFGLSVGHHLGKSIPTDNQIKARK

Cc1cc2c(cc1C)-c1oc(CNc3ccc(CN4CCOCC4)cc3)c(C)c1C(=O)C2=O
fold change (FC) [1]: 16.4
fold change (FC) [2]: 30.5
IC50 (HepG2): 4.3 µM
fold change (FC) [3]: 17.4
Selectivity ratio (Homo sapiens): 20.8
IC50 (A549/TR): 2.2 µM
IC50 (A549 [4]): 2.1 µM
fold change (FC) [5]: 2.05
Activity (A549 [6]): inactive
fold change (FC) (A549 [7]): 1.03
IC50 (HEK293): 3.9 µM
IC50 (MCF7): 4.7 µM
fold change (FC) [8]: 4.18
Activity (L02): Non-Toxic
Activity [9]: 10.3 nmol/mg
fold change (FC) (A549 [10]): 1.07
fold change (FC) [11]: 2.41
Activity [12]: Dose-dependent effect
Activity [13]: Dose-dependent effect
fold change (FC) [14]: 11.1
IC50 (HCT-116): 4.9 µM
fold change (FC) (A549 [15]): 1.1
Activity [16]: Dose-dependent effect
fold change (FC) [17]: 0.32
Activity [18]: inactive
fold change (FC) [19]: 12.5
fold change (FC) [20]: 2.49
IC50 (NCI-H596): 30 µM
fold change (FC) [21]: 1.36
Activity (A549 [22]): Dose-dependent effect
Activity (A549 [23]): Active
Activity [24]: 1520 µmol/min
Activity [25]: inactive
inhibition in vivo at 30 mg/kg (A549 [26]): 87.1%
Activity [27]: Active

Reference: ChEMBL document CHEMBL4130353, “2-Substituted 3,7,8-trimethylnaphtho[1,2-b]furan-4,5-diones as specific L-shaped NQO1-mediated redox modulators for the treatment of non-small cell lung cancer” (Eur J Med Chem, 2017)
